{"source": "patent US5866537A", "about": "“Pharmaceutical and/or dietetic compositions with antioxidant activity containing carnosine or derivatives and branched amino acids” (Farmila-Farmaceutici Milano S.R.L., priority 1995, dated 1999)", "format_in_all_cases": "in vivo", "key": {"[1]": {"system": "lipoperoxides content in the liver", "test": "lipoperoxides content in liver (malonyldialdehyde, Yagi procedure) of rats on hyperlipidemizing and hypercholesterolemizing diet", "conditions": "male rats, solution as ad libitum drink; for percent variation compared with the control: liver lipoperoxides, 20 days diet; for malonyldialdehyde nmoles/g. of fresh tissue: liver, 20 days hyperlipidemizing and hypercholesterolemizing diet", "procedure": "(§1) In order to study the pharmacological and/or dietetic characteristics of the compositions according to the present invention, tests were carried out to evaluate the following effects in rats subjected to an ipovitaminic, hyperlipidemizing and hypercholesterolemizing diet (which is known to be capable of promoting the tissue and plasma peroxidation processes):\n2°) effect of the compositions on the lipoperoxides hepatic content (measured as malonyldialdehyde nmoles/g)\n(§2) 36 Male rats weighing 180-200 g were used.\n(§3) The animals were subjected for 20 days to a standard hyperlipidemizing and hypercolesterolemizing diet consisting of: 20% caseine, a 3.5% mixture of oligoelements and mineral salts, a 0.1% mixture of vitamins, 0.2% choline bitartrate, 2% cellulose powder, 0.5% chloesterol, 0.25. sodium cholate, 62.44% saccharose and 10.9% lard. During that time, the animals were divided into in 6 groups which received as an \"ad libitum\" available drink:\n(§4) 1° group: control (only water)\n(§5) 2° group: Test A (a 0.75% CARNOSINE aqueous solution)\n(§6) 3° group: Test B (a 0.25% CARNITINE aqueous solution)\n(§7) At end of the test the animals were killed to take both blood samples and the various organs (liver, brain, and heart) on which the lipoperoxides content was evaluated dosing malonyldialdehyde, according to the procedure by Yagi (YAGI K, (1982), in \"Lipid peroxides in biology and medicine\", Academic Press, New York, pp. 324-40)."}, "[2]": {"system": "lipoperoxides content in the plasma", "test": "lipoperoxides content in plasma (malonyldialdehyde, Yagi procedure) of rats on hyperlipidemizing and hypercholesterolemizing diet", "conditions": "male rats, solution as ad libitum drink; for percent variation compared with the control: plasma lipoperoxides, 20 days diet; for malonyldialdehyde: plasma, 20 days hyperlipidemizing and hypercholesterolemizing diet", "procedure": "as §1\n1°) effect of the compositions on the lipoperoxides […] content (measured as malonildialdehye nmoles/ml)\nas §2, §3, §4, §5, §6, §7"}, "[3]": {"system": "lipoperoxides content in the heart", "test": "lipoperoxides content in heart (malonyldialdehyde, Yagi procedure) of rats on hyperlipidemizing and hypercholesterolemizing diet", "conditions": "male rats, solution as ad libitum drink; for percent variation compared with the control: heart lipoperoxides, 20 days diet; for malonyldialdehyde nmoles/g. of fresh tissue: heart, 20 days hyperlipidemizing and hypercholesterolemizing diet", "procedure": "as §1\n4°) effect of the compositions on the lipoperoxides content in the heart (measured as malonyldialdehyde nmoles/g).\nas §2, §3, §4, §5, §6, §7"}, "[4]": {"system": "lipoperoxides content in brain", "test": "lipoperoxides content in brain (malonyldialdehyde, Yagi procedure) of rats on hyperlipidemizing and hypercholesterolemizing diet", "conditions": "male rats, solution as ad libitum drink; for percent variation compared with the control: brain lipoperoxides, 20 days diet; for malonyldialdehyde nmoles/g. of fresh tissue: brain, 20 days hyperlipidemizing and hypercholesterolemizing diet", "procedure": "3°) effect of the compositions on the lipoperoxides cerebral content (measured as malonyldialdehyde nmoles/g)\nas §2, §3, §4, §5, §6, §7"}}, "note": "Counter-ions that a name gives are not always drawn.", "data": [{"smiles": "NCCC(=O)N[C@@H](Cc1c[nH]cn1)C(=O)O", "note": "[Test A, β-alanyl-L-histidine]", "values": [{"measurement": "percent variation compared with the control", "setting": "[1]", "result": -9.5, "unit": "%"}, {"measurement": "malonyldialdehyde nmoles/g. of fresh tissue", "setting": "[1]", "result": "39 ± 8 nmoles/g. of fresh tissue"}, {"measurement": "percent variation compared with the control", "setting": "[2]", "result": -14.2, "unit": "%"}, {"measurement": "malonyldialdehyde", "setting": "[2]", "result": "3.6 ± 0.6", "unit": "nmol/mL"}, {"measurement": "percent variation compared with the control", "setting": "[3]", "result": -20.0, "unit": "%"}, {"measurement": "percent variation compared with the control", "setting": "[3]; listed as carnosine", "result": -20, "unit": "%"}, {"measurement": "malonyldialdehyde nmoles/g. of fresh tissue", "setting": "[3]", "result": "36 ± 7 nmoles/g. of fresh tissue"}, {"measurement": "percent variation compared with the control", "setting": "[4]", "result": -12.7, "unit": "%"}, {"measurement": "malonyldialdehyde nmoles/g. of fresh tissue", "setting": "[4]", "result": "89 ± 7 nmoles/g. of fresh tissue"}]}, {"smiles": "C[N+](C)(C)CC(O)CC(=O)[O-]", "note": "(centres unmarked) [Test B, 3-carboxy-2-hydroxy-N,N,N-trimethyl-1-propanamine inner salt]", "values": [{"measurement": "percent variation compared with the control", "setting": "[1]", "result": "+2.3%"}, {"measurement": "malonyldialdehyde nmoles/g. of fresh tissue", "setting": "[1]", "result": "43 ± 6 nmoles/g. of fresh tissue"}, {"measurement": "percent variation compared with the control", "setting": "[2]", "result": "no effects"}, {"measurement": "malonyldialdehyde", "setting": "[2]", "result": "4.2 ± 0.8", "unit": "nmol/mL"}, {"measurement": "percent variation compared with the control", "setting": "[3]", "result": "no changes compared with the controls"}, {"measurement": "malonyldialdehyde nmoles/g. of fresh tissue", "setting": "[3]", "result": "45 ± 4 nmoles/g. of fresh tissue"}, {"measurement": "percent variation compared with the control", "setting": "[4]", "result": "+3.9%"}, {"measurement": "malonyldialdehyde nmoles/g. of fresh tissue", "setting": "[4]", "result": "106 ± 5 nmoles/g. of fresh tissue"}]}]}
